Assay results taken from patent US20200216432A1, “SULFONAMIDE DERIVATIVES AS STAT3 INHIBITORS FOR THE TREATMENT OF PROLIFERATIVE DISEASES” (King's College London, priority 2017, published 2020).
pIC50: −log10 of the molar value.

Tests used:
[1] = biological target: unphosphorylated STAT3 monomer (uSTAT3) SH2 domain (Homo sapiens, UniProt P40763); experiment: Fluorescence polarisation assay for the inhibition of STAT3 dimerisation; assay type: binding; conditions: 350 nM uSTAT3, 10 nM FAM-pYLPQTV, 100 μM ligand; average of triplicate
Sequence of unphosphorylated STAT3 monomer (uSTAT3) SH2 domain (P40763 whole entry, the tested form may be a part): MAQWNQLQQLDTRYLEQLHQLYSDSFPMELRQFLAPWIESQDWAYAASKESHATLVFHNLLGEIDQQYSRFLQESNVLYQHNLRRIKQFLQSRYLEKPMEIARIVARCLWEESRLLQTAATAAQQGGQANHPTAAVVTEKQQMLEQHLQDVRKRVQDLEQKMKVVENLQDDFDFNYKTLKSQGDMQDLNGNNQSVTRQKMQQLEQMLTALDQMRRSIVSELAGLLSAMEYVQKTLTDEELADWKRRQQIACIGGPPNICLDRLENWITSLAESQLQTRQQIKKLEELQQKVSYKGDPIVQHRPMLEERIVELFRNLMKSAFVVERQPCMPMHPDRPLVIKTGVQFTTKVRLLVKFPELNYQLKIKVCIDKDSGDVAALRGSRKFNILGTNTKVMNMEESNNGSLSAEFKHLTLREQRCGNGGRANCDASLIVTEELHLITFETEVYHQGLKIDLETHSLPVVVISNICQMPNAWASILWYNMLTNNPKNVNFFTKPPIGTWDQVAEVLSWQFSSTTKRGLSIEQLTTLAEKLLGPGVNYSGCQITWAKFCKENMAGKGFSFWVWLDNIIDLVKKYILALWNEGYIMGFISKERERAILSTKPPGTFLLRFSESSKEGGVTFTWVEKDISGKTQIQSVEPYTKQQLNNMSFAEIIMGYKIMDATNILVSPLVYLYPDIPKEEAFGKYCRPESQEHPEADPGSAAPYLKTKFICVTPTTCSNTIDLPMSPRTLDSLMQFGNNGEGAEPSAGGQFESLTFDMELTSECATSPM
Excerpt: Fluorescence Polarisation Assay for the Inhibition of STAT3 Dimerisation
The compounds were subjected to an in vitro fluorescent polarisation (FP)-based primary PPI binding screen to assess their ability to inhibit STAT3 dimerisation by interacting with the SH2 domain. In this FP assay, the unphosphorylated STAT3 monomer (uSTAT3) and a surrogate peptide FAM-pYLPQTV were used to form a ‘pseudo-dimer’. The assay is based on the concept that the compounds were expected to displace the surrogate peptide from the uSTAT3 resulting in a fluorescent read out.
Specifically, for the FP assay, a black (CORNING™) 96 well plate was thoroughly washed with distilled water and allowed to dry. A 100 nM FAM-pYLPQTV working solution was prepared from 10 μM FAM-pYLPQTV stock solution (in DMSO) using PBS pH 7.4 Buffer. 10 μl FAM-pYLPQTV was added to 350 nM uSTAT3 protein, the final concentration of protein in each well, in 90 μl PBS buffer pH 7.4. The MP value of the surrogate dimer complex was measured using a fluorescent plate reader (Envision™, Perkin Elmer™, USA), which provided the base MP value. The inhibitor solution was then added to the well and the assay plate was placed on a shaker for 5 minutes. The MP value for each well was then measured again. A shift in fluorescent values was observed due to displacement of the fluorescently-labelled surrogate peptide by the inhibitors, and the average inhibition for each inhibitor could be calculated as described below:
Base MP value (X) for each well=MP value of Protein and Probe (350 nm STAT3+10 nM FAM-pYLPQTV)−MP value of free FAM-pYLPQTV
Inhibitor MP value (Y) for each well=MP value of Protein+Probe+Inhibitor (350 nm uSTAT3+10 nM FAM-pYLPQTV+2 μL Inhibitor)−MP value of free FAM-pYLPQTV with 2 μL DMSO
% inhibition by any ligand/peptide=(X−Y)/X*100
For comparison purpose, the % inhibition produced by 100 μM pYLKTKF was considered to be 100%, and the inhibition produced by different ligands was reported as relative to 100 μM pYLKTKF.
% Inhibition produced by 100 μM pYLKTKF=A
% Inhibition produced by 100 μM Ligand=B
Relative inhibition (%)=B/A*100
The experiment was carried out in triplicate, and average values were taken as the measure of PPI inhibition.

[2] = tested on: MDA-MB-231 breast (STAT3-dependent) cancer cell line; experiment: MTT cell viability assay, MDA-MB-231; assay type: cell-based, human; conditions: for pIC50: MTT, 48 hours exposure (table title); for Selectivity ratio: STAT3-null A4 versus STAT3-dependent MDA-MB-231
Excerpt: (§1) MTT Cell viability assay with both MDA-MB-231 breast (STAT3-dependent) and A4 (STAT3-null) cancer cell lines.
(§2) After observing significant STAT3 dimerisation inhibitory activity in the preliminary FP assay, the target ligand and related fragments were progressed to an MTT cytotoxicity assay to evaluate in a STAT3-dependent tumour cell line (MDA MB 231, breast cancer) and a STAT3 null A4 cell line. It was anticipated that the compounds would show selective toxicity towards the STAT3-dependent MDA MB 231 cell line and would have lost activity in the STAT3 null A4 cell line if the mechanism of action was STAT3-mediated.
(§3) For each cell line, a total of 10,000 cells were seeded for 24 hours before addition of the inhibitors. The cells were grown in normal cell culture conditions at 37° C. under a 5% CO2 humidified atmosphere using an appropriate medium. The cell count was adjusted to 10^5 cells/ml, and 5,000-20,000 cells were added per well depending on the cell line. The cells were then incubated for 24 hours, and 1 μl aliquots of the inhibitors were added to the wells in triplicate. […] Absorbance was quantified by spectrophotometry at A=570 nm (Envision™ Plate Reader, PerkinElmer™, USA). IC50 values were calculated by a dose-response analysis using the Prism GraphPad Prism® software package.

[3] = tested on: A4 (STAT3-null) cancer cell line; experiment: MTT cell viability assay, A4; assay type: cell-based
Excerpt: as §1, §2, §3

[4] = 48 hours exposure (table title)

Row | Structure (SMILES) | inhibition at 100 µM [1] | pIC50 ([2]; Homo sapiens, MDA-MB-231, 48 h) | pIC50 ([3]; exposure (table title)) | Selectivity ratio [2] | % Inhibition [1] | pIC50 [2] | pIC50 [3, 4]
1 | COC(=O)c1ccc(N(C)S(=O)(=O)c2cc(C(=O)Nc3ccc4[nH]c(Cc5ccccc5)nc4c3)sc2Br)cc1 [Compound 35, methyl 4-((5-((2-benzyl-1H-benzo[d]imidazol-5-yl)carbamoyl)-2-bromo-N-methylthiophene)-3-sulfonamido)benzoate] | 33.3% | 5.35 | 4.41 | 8.69 | – | – | –
2 | COC(=O)c1ccc(N(C)S(=O)(=O)c2cc(C(=O)NCc3ccc(N4CCOCC4)cc3)sc2Br)cc1 [Compound 24, methyl 4-((2-bromo-N-methyl-5-((4-morpholinobenzyl)carbamoyl)thiophene)-3-sulfonamido)benzoate] | 9.42% | 4.46 | 4.48 | 0.96 | – | – | –
3 | COC(=O)c1ccc(N(C)S(=O)(=O)c2cc(C(=O)NCc3ccc(OCCN4CCOCC4)cc3)sc2Br)cc1 [Compound 25, methyl 4-((2-bromo-N-methyl-5-((4-(2-morpholinoethoxy)benzyl)carbamoyl)thiophene)-3-sulfonamido)benzoate] | – | – | – | – | 49.62% | 5.44 | 4.36
4 | COC(=O)c1ccc(N(C)S(=O)(=O)c2cc(C(=O)Nc3ccc(OCCN4CCOCC4)cc3)sc2-c2ccc(C(=O)N3CCOCC3)cc2)cc1 [Compound 12, methyl 4-((N-methyl-2-(4-(morpholine-4-carbonyl)phenyl)-5-((4-(2-morpholinoethoxy)phenyl)carbamoyl)thiophene)-3-sulfonamido)benzoate] | 59.4% | 5.41 | 4.12 | 19.28 | – | – | –
5 | COC(=O)c1ccc(N(C)S(=O)(=O)c2cc(C(=O)Nc3ccc(OCCN4CCOCC4)cc3)sc2Br)cc1 [Compound 29, methyl 4-((2-bromo-N-methyl-5-((4-(2-morpholinoethoxy)phenyl)carbamoyl)thiophene)-3-sulfonamido)benzoate] | – | – | – | – | 42.90% | 5.24 | 4.27
6 | COC(=O)c1ccc(NC(=O)c2cc(S(=O)(=O)N(C)c3ccc(C(=O)OC)cc3)c(Br)s2)cc1 [Compound 27, methyl 4-(5-bromo-4-(N-(4-(methoxycarbonyl)phenyl)-N-methylsulfamoyl)thiophene-2-carboxamido)benzoate] | 20.3% | 5.06 | 4.23 | 6.70 | – | – | –
7 | COC(=O)c1ccc(N(C)S(=O)(=O)c2cc(C(=O)Nc3ccc4c(ccn4Cc4ccccc4)c3)sc2-c2ccc(N3CCCCC3)cc2)cc1 [Compound 20, methyl 4-((5-((1-benzyl-1H-indol-5-yl)carbamoyl)-N-methyl-2-(4-(piperidin-1-yl)phenyl)thiophene)-3-sulfonamido)benzoate] | 35.6% | 4.98 | 4.23 | 5.62 | – | – | –
8 | COC(=O)c1ccc(N(C)S(=O)(=O)c2cc(C(=O)Nc3ccc(OCCN4CCOCC4)cc3)sc2-c2ccc(C#N)cc2)cc1 [Compound 16, methyl 4-((2-(4-cyanophenyl)-N-methyl-5-((4-(2-morpholinoethoxy)phenyl)carbamoyl)thiophene)-3-sulfonamido)benzoate] | 47.9% | 5.96 | 4.45 | 32.36 | – | – | –
9 | COC(=O)c1ccc(N(C)S(=O)(=O)c2cc(C(=O)Nc3cccc(N4CCCCC4)c3)sc2Br)cc1 [Compound 28, methyl 4-((2-bromo-N-methyl-5-((3-(piperidin-1-yl)phenyl)carbamoyl)thiophene)-3-sulfonamido)benzoate] | 51.3% | 5.19 | 4.37 | 6.56 | – | – | –

Continued, in another order:

Row | inhibition at 100 µM [1] | pIC50 ([2]; Homo sapiens, MDA-MB-231, 48 h) | pIC50 ([3]; exposure (table title)) | Structure (SMILES) | Selectivity ratio [2] | % Inhibition [1] | pIC50 [2] | pIC50 [3, 4]
10 | 33.3% | 4.84 | 4.11 | COC(=O)c1ccc(N(C)S(=O)(=O)c2cc(C(=O)Nc3ccc(OCCN4CCOCC4)cc3)sc2-c2ccnc(N3CCNCC3)c2)cc1 [Compound 14, methyl 4-((N-methyl-5-((4-(2-morpholinoethoxy)phenyl)carbamoyl)-2-(2-(piperazin-1-yl)pyridin-4-yl)thiophene)-3-sulfonamido)benzoate] | 5.40 | – | – | –
11 | 36.4% | 4.91 | 4.46 | COC(=O)c1ccc(N(C)S(=O)(=O)c2cc(C(=O)NCc3ccc(CN4CCCCC4)cc3)sc2-c2ccc(C#N)cc2)cc1 [Compound 8, methyl 4-((2-(4-cyanophenyl)-N-methyl-5-((4-(piperidin-1-ylmethyl)benzyl)carbamoyl)thiophene)-3-sulfonamido)benzoate] | 2.76 | – | – | –
12 | 46.9% | 5.61 | 4.24 | COC(=O)c1ccc(N(C)S(=O)(=O)c2cc(C(=O)NCc3ccc(CN4CCCCC4)cc3)sc2-c2ccnc(N3CCN(C)CC3)c2)cc1 [Compound 5, methyl 4-((N-methyl-2-(2-(4-methylpiperazin-1-yl)pyridin-4-yl)-5-((4-(piperidin-1-ylmethyl)benzyl)carbamoyl)thiophene)-3-sulfonamido)benzoate] | 23.62 | – | – | –
13 | 40.6% | 5.00 | 4.07 | COC(=O)c1ccc(N(C)S(=O)(=O)c2cc(C(=O)Nc3ccc(OCCN4CCOCC4)cc3)sc2-c2ccc(C(=O)N3CCN(C)CC3)cc2)cc1 [Compound 15, methyl 4-((N-methyl-2-(4-(4-methylpiperazine-1-carbonyl)phenyl)-5-((4-(2-morpholinoethoxy)phenyl)carbamoyl)thiophene)-3-sulfonamido)benzoate] | 8.45 | – | – | –
14 | 8.24% | 4.84 | 4.59 | COC(=O)c1ccc(N(C)S(=O)(=O)c2cc(C(=O)NCc3ccc(N4CCCCC4)cc3)sc2Br)cc1 [Compound 26, methyl 4-((2-bromo-N-methyl-5-((4-(piperidin-1-yl)benzyl)carbamoyl)thiophene)-3-sulfonamido)benzoate] | 1.77 | – | – | –
15 | 45.8% | 5.46 | 4.34 | COC(=O)c1ccc(N(C)S(=O)(=O)c2cc(C(=O)Nc3ccc(N4CCCCC4)cc3)sc2-c2ccc(N3CCCCC3)cc2)cc1 [Compound 18, methyl 4-((N-methyl-2-(4-(piperidin-1-yl)phenyl)-5-((4-(piperidin-1-yl)phenyl)carbamoyl)thiophene)-3-sulfonamido)benzoate] | 12.94 | – | – | –
16 | 51.2% | 5.67 | 4.07 | COC(=O)c1ccc(N(C)S(=O)(=O)c2cc(C(=O)NCc3ccc(CN4CCCCC4)cc3)sc2-c2ccc(N3CCCCC3)cc2)cc1 [Compound 2, methyl 4-((N-methyl-2-(4-(piperidin-1-yl)phenyl)-5-((4-(piperidin-1-ylmethyl)benzyl)carbamoyl)thiophene)-3-sulfonamido)benzoate] | 39.76 | – | – | –
17 | 42.3% | 5.35 | 4.03 | COC(=O)c1ccc(N(C)S(=O)(=O)c2cc(C(=O)NCc3ccc(CN4CCCCC4)cc3)sc2Br)cc1 [Compound 33, methyl 4-((2-bromo-N-methyl-5-((4-(piperidin-1-ylmethyl)benzyl)carbamoyl)thiophene)-3-sulfonamido)benzoate] | 21.16 | – | – | –
